Laboratory results taken from ChEMBL document CHEMBL1201862, “PubChem BioAssay data set” (2004).
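Compound exposure: 48 hours, 5 concentrations, 96-well plates. Abbreviation: GI50, concentration required for 50% inhibition of growth.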 The source made the active and inactive calls. Cut-off read from the data, not from the text of the source: active = GI50 up to about 1.1 µM and inactive = higher.

How the values were obtained:
Assay in all cases: growth of human tumour cells (NCI), 48 h
HCC 2998 = tested on: HCC 2998
OVCAR-3 = tested on: OVCAR-3
OVCAR-8 = tested on: OVCAR-8
A549 = tested on: A549
NCI/ADR-RES = tested on: NCI/ADR-RES
NCI-H226 = tested on: NCI-H226
TK-10 = tested on: TK-10
KM12 = tested on: KM12
SK-MEL-5 = tested on: SK-MEL-5
Malme-3M = tested on: Malme-3M
RXF 393 = tested on: RXF 393
HL-60 = tested on: HL-60
HOP-92 = tested on: HOP-92
CAKI-1 = tested on: CAKI-1
HT-29 = tested on: HT-29
SF-295 = tested on: SF-295
MCF7 = tested on: MCF7

Measured: GI50

C=C(c1ccccc1)c1ccccc1-c1cc(-c2ccccc2)cc(-c2ccccc2)n1
inactive: HCC 2998 98.6 µM | OVCAR-3 76.6 µM | OVCAR-8 > 100 µM | A549 > 100 µM | NCI/ADR-RES > 100 µM | NCI-H226 > 100 µM | TK-10 > 100 µM | KM12 > 100 µM | SK-MEL-5 78.3 µM | Malme-3M > 100 µM | RXF 393 > 100 µM | HL-60 34.5 µM | HOP-92 > 100 µM | CAKI-1 > 100 µM | HT-29 99.5 µM | SF-295 > 100 µM | MCF7 > 100 µM

CC1=CC(=O)CC(C)(C)C1/C=C/C(C)=C/C=C/C(C)=C/C=C/C=C(C)/C=C/C=C(C)/C=C/C1C(C)=CC(=O)CC1(C)C (centres undefined)
inactive: HCC 2998 53.1 µM | OVCAR-3 30.5 µM | OVCAR-8 20.1 µM | NCI/ADR-RES 72.6 µM | NCI-H226 > 100 µM | TK-10 77.1 µM | KM12 37.2 µM | SK-MEL-5 45.8 µM | RXF 393 > 100 µM | HL-60 38.5 µM | HOP-92 23.3 µM | CAKI-1 58.7 µM | HT-29 35.7 µM | SF-295 92 µM | MCF7 29.2 µM

O=C1NC(=O)C23C(=O)NC(=O)C12C1C=CC3CC1 (centres undefined)
inactive: HCC 2998 > 10 µM | OVCAR-3 > 10 µM | OVCAR-8 > 10 µM | A549 > 10 µM | NCI/ADR-RES > 10 µM | NCI-H226 > 10 µM | TK-10 > 10 µM | KM12 > 10 µM | SK-MEL-5 > 10 µM | Malme-3M > 10 µM | RXF 393 > 10 µM | HL-60 > 10 µM | HOP-92 > 10 µM | CAKI-1 > 10 µM | HT-29 > 10 µM | SF-295 > 10 µM | MCF7 > 10 µM

C=C1CN=C(Nc2ccc(F)cc2F)S1
inactive: HCC 2998 > 100 µM | OVCAR-8 > 100 µM | A549 > 100 µM | NCI/ADR-RES > 100 µM | TK-10 > 100 µM | KM12 > 100 µM | SK-MEL-5 > 100 µM | Malme-3M > 100 µM | HL-60 31.5 µM | HOP-92 2.51 µM | CAKI-1 > 100 µM | HT-29 > 100 µM | SF-295 > 100 µM | MCF7 28 µM

COCCOCc1nc(C#N)c(N)o1
inactive: HCC 2998 > 100 µM | OVCAR-3 > 100 µM | A549 > 100 µM | NCI/ADR-RES > 100 µM | NCI-H226 > 100 µM | TK-10 > 100 µM | KM12 > 100 µM | SK-MEL-5 > 100 µM | Malme-3M > 100 µM | RXF 393 > 100 µM | HL-60 > 100 µM | HOP-92 > 100 µM | CAKI-1 > 100 µM | HT-29 > 100 µM | SF-295 > 100 µM | MCF7 > 100 µM

CCOC(=O)C1C(c2ccc3c(c2)OCO3)c2c(n[nH]c2O)CC1(C)O (centres undefined)
inactive: HCC 2998 > 100 µM | OVCAR-3 > 100 µM | OVCAR-8 > 100 µM | A549 > 100 µM | NCI/ADR-RES > 100 µM | TK-10 > 100 µM | KM12 > 100 µM | SK-MEL-5 > 100 µM | Malme-3M 56.1 µM | HL-60 > 100 µM | HOP-92 > 100 µM | CAKI-1 > 100 µM | HT-29 > 100 µM | SF-295 > 100 µM | MCF7 > 100 µM

CCOC(=O)N[C@@H]1C2CC(=O)C(O2)[C@@H]1OC (some centres undefined)
inactive: HCC 2998 > 100 µM | OVCAR-3 > 100 µM | OVCAR-8 > 100 µM | A549 > 100 µM | NCI-H226 > 100 µM | TK-10 > 100 µM | KM12 > 100 µM | SK-MEL-5 > 100 µM | Malme-3M > 100 µM | RXF 393 > 100 µM | HL-60 > 100 µM | HOP-92 > 100 µM | CAKI-1 > 100 µM | HT-29 > 100 µM | SF-295 > 100 µM

COC(=O)C(Cc1nc2ccccc2nc1O)C(=O)C(=O)Nc1ccc(OC)cc1[N+](=O)[O-] (centres undefined)
inactive: HCC 2998 > 100 µM | OVCAR-3 > 100 µM | OVCAR-8 > 100 µM | A549 > 100 µM | NCI-H226 > 100 µM | TK-10 > 100 µM | KM12 > 100 µM | SK-MEL-5 > 100 µM | Malme-3M > 100 µM | HL-60 > 100 µM | HOP-92 96.2 µM | CAKI-1 > 100 µM | HT-29 82.8 µM | SF-295 > 100 µM

CC1(C)COC(c2cccc(C(O)c3ccc(Cl)cc3)c2)=N1 (centres undefined)
inactive: HCC 2998 23.8 µM | OVCAR-3 20.1 µM | OVCAR-8 16.1 µM | A549 > 10 µM | NCI/ADR-RES 33.3 µM | NCI-H226 14.8 µM | TK-10 32.6 µM | KM12 43.7 µM | SK-MEL-5 14.4 µM | Malme-3M 25.1 µM | RXF 393 15 µM | HL-60 41 µM | HOP-92 24.9 µM | CAKI-1 42.3 µM | HT-29 17.7 µM | MCF7 19.6 µM
